Patent US20070275981A1, “(Hetero)Cyclycarboxamides for Controlling Pathogenic Fungi” (priority 2004, published 2007)

Assays:
Plasmopara viticola [1] = test: Activity against Peronospora of grapevines caused by Plasmopara viticola, 7 day protective application (Use Example 5); type: in vivo, Plasmopara viticola on potted grapevines; details: 250 ppm active compound, untreated plants 50% infected
Protocol: (§1) For the use examples 4 to 7, the active compounds were prepared as a stock solution comprising 25 mg of active compound which was made up with a mixture of acetone and/or DMSO and the emulsifier Uniperol® EL in a volume ratio of solvent/emulsifier of 99:1 to 10 ml. The mixture was then made up to 100 ml with water. This stock solution was diluted to the active compound concentration stated below using the solvent/emulsifier/water mixture described.
Leaves of potted grapevines were sprayed to runoff point with an aqueous suspension having the concentration of active compound stated below. To be able to assess the persistency of the substances, the plants were, after the spray coating had dried on, placed in a greenhouse for 7 days. The undersides of the leaves were then inoculated with an aqueous sporangia suspension of Plasmopara viticola. The grapevines were then placed initially for 48 hours in a water vapor-saturated chamber at 24° C. and then for 5 days in the greenhouse at temperatures between 20 and 30° C. After this time, the plants were again placed in a humid chamber for 16 hours, to accelerate sporangiophore eruption. The extent of the development of the infection on the undersides of the leaves was then determined visually.

Plasmopara viticola [2] = test: Activity against Peronospora of grapevines caused by Plasmopara viticola (Use Example 1, inoculation the next day); type: in vivo, Plasmopara viticola on potted grapevines; details: 250 ppm active compound, spray to runoff, inoculated next day; untreated plants 80% infected
Protocol: For the use examples 1 to 3, the active compounds were prepared as a stock solution comprising 0.25% by weight of active compound in acetone or dimethyl sulfoxide (DMSO). 1% by weight of the emulsifier Uniperol® EL (wetting agent having emulsifying and dispersant action based on ethoxylated alkylphenols) was added to this solution, and the mixture was diluted with water to the desired concentration.
Leaves of potted grapevines were sprayed to runoff point with an aqueous suspension having the concentration of active compounds stated below. The next day, the undersides of the leaves were inoculated with an aqueous sporangia suspension of Plasmopara viticola. The grapevines were then initially placed in a water vapor-saturated chamber at 24° C. for 48 hours and then in a greenhouse at temperatures between 20 and 30° C. for 5 days. After this time, the plants were again placed in a humid chamber for 16 hours to promote sporangiophore eruption. The extent of the development of the infection on the undersides of the leaves was then determined visually.

[3] = system: Erysiphe [syn. Blumeria] graminis forma specialis. tritici; test: Activity against mildew of wheat caused by Erysiphe [syn. Blumeria] graminis forma specialis. tritici (Use Example 7); type: in vivo; details: 250 ppm active compound, protective 24 h, 7 days; untreated plants 70% infected
Protocol: as §1
Leaves of potted wheat seedlings of the cultivar “Kanzler” were sprayed to runoff point with an aqueous suspension having the concentration of active compound stated below. 24 h after the spray coating had dried on, the leaves were dusted with spores of mildew of wheat (Erysiphe [syn. Blumeria] graminis forma specialis. tritici). The plants were then placed in a greenhouse at temperatures between 20 and 24° C. and 60 to 90% relative atmospheric humidity. After 7 days, the extent of the fungal infection was determined visually by the infection of the leaf area.

Botrytis cinerea = test: Activity against gray mold on bell pepper leaves caused by Botrytis cinerea, protective application (Use Example 6); type: in vivo; details: 63 ppm active compound, 5 days, untreated plants 90% affected
Protocol: The mixture was then made up to 100 ml with water.
The next day, the treated plants were inoculated with an aqueous spore suspension of Botrytis cinerea in a 2% strength aqueous biomold solution having a density of 1.7×10^6 spores/ml. The plants were then placed in a dark acclimatized chamber at temperatures between 22 and 24° C. and high atmospheric humidity. After 5 days, the extent of the fungal infection could be determined visually by the infection of the leaf area.

Cc1nn(C)cc1C(=O)Nc1cc(C(F)(F)F)nn1-c1ccccc1 [example 10]
infection (Plasmopara viticola [1]): at most 20%

Cc1ccsc1C(=O)Nc1cc(C(F)(F)F)nn1-c1ccc(Br)cc1 [example 18]
infection (Plasmopara viticola [2]): at most 20%

Cc1ccc(-n2nccc2NC(=O)c2cccnc2Cl)cc1 [example 31]
infection (leaf area) [3]: at most 15%

Cn1cc(C(=O)Nc2ccnn2-c2ccc(-c3ccccc3)cc2)c(C(F)(F)F)n1 [example 43]
infection (leaf area) (Botrytis cinerea): at most 10%
